In US11788060B2, “Small molecule compound composition that efficiently induces differentiation of human pluripotent stem cells into myocardial cells” (Shanghai Institute of Nutrition and Health, Chinese Academy …, priority 2016, dated 2023):

Assays:
stem cells [1] = assay: Annexin V/PI staining of apoptosis and cell death; type: cell-based, human
Procedure: Annexin V/PI staining: Annexin V/PI kit (Roche) was used in this experiment. The cells were cultured in 24-well plates. At the specified time, the cells were digested into single cells with accutase and washed once with PBS. The cells were incubated with staining solution containing Annexin V and PI for 10 minutes. Care was taken to avoid light. 5 volumes of incubation solution was added to dilute thereby stopping the reaction and tested by flow cytometry immediately, the excitation lights were 488 nm and 518 nm, the emission lights were 488-540 nm and 617 nm.

stem cells [2] = assay: Cell cycle analysis and BrdU cell proliferation assay; type: cell-based, human; settings: compared with DMSO control group
Procedure: After 10 μM BrdU (Sigma-Aldrich) was added to incubate the cells for 1 hour, cells were harvested, digested and centrifuged at 300 g for 5 minutes. Cells were collected, washed once with PBS containing 0.5% BSA (wash solution) at room temperature, and resuspended in 1 ml of PBS. 3 ml of pre-cooled ethanol was added with shaking and settled for 20 minutes at room temperature. Centrifuge to remove the supernatant, wash once with PBS, centrifuge to remove supernatant, loosen the pellet by flicking a few times, add 1 ml of the freshly prepared denaturation solution (2M HCl) and mix. Allow to stand at room temperature for 20 minutes; add 1 ml of 0.1 M sodium borate (pH 8.5) to neutralize for 2 minutes at room temperature; rinse once and add anti-BrdU antibody (BD Biosciences 1:50 dilution) prepared with PBS containing 0.5% Tween 20/0.5% BSA (Sigma-Aldrich); aspirate primary antibody, rinse with 1 ml wash solution, add Alexa-488-anti-mouse (1:1000), incubate for 20 minutes at room temperature; aspirate secondary antibody, rinse again, resuspend with 0.5 ml 10 μg/ml PI solution and incubate for 30 minutes at room temperature. The supernatant was removed by centrifugation, rinsed again with a wash solution, and tested with flow cytometry.

[3] = test system: human embryonic stem cells; assay: Cell count of stem cells in high-density monolayer culture; type: cell-based; settings: DMSO, CHIR or CHIR+rapamycin; 5×10^4/cm^2, days 1-4
Procedure: The correlated detection was performed under three treatment conditions of DMSO, CHIR and CHIR+rapamycin. […] (Due to the replacement of the culture medium on the 4th day, stem cells underwent massive death because of the rapid changes in the environment).

Parp = assay: Western blot of Parp cleavage; type: cell-based, human; settings: first 4 days of treatment
Text: Wherein figure (A and B) show the influence of different small molecules on proliferation rate of the stem cells by means of cell cycle analysis and BrdU proliferation detection. (C) Western blot analysis of intracellular Parp protein cleavage to estimate cell death under different treatment. (D) Influence of rapamycin on activity of apoptosis executive caspase 3/7 determined by luciferase reporter system. (E) Detection of the proportion of cell death treated with or without rapamycin by Annexin V/PI staining at the end of the culture on day 3 and day 4. […] All the results are statistically analyzed for at least 3 independently repeated experiments (* P<0.05, ** P<0.01).
Caspase 3, 6, and 7 are the execution proteins of apoptosis and are mainly responsible for the cleavage of structural proteins and regulatory proteins in the nucleus and cytoplasm.

`Cc1c[nH]c(-c2cnc(NCCNc3ccc(C#N)cn3)nc2-c2ccc(Cl)cc2Cl)n1` [CHIR99021] was tested, and the “proportion of cell death” value (stem cells [1]; 4th day, 24 hours after replacing with RPMI/B27 differentiation medium) was “nearly half”, the “Annexin V-positive apoptotic cells” value (stem cells [1]; end of culture on the third day) was 25.8% and the “proportion of cells in S phase and proportion of BrdU positive cells” value (stem cells [2]) was “slightly increased”. For the same compound, the stem cell number [3] was “accelerated the increase in stem cell number in the first 3 days” and the Parp cleavage band (Parp) was “gradually increased”.
